Assay results published in PubChem BioAssay (NCI).
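Grown in 96-well plates, cells were treated for 48 hours with each compound at five concentrations. Insufficient inhibition: endpoint recorded as highest concentration tested. Here, GI50 denotes the concentration required for 50% inhibition of growth. TGI is the concentration that stops growth completely.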

What was measured:
Experiment in all cases: NCI-60 cell line screen, 48 h
[1] = system: PC-3 prostate
[2] = system: EKVX NSCLC
[3] = system: RXF 393 renal
[4] = system: KM12 colon
[5] = system: SK-MEL-2 melanoma
[6] = system: ACHN renal
[7] = system: BT-549 breast
[8] = system: OVCAR-5 ovarian
[9] = system: SNB-75 CNS
[10] = system: HCC-2998 colon
[11] = system: SF-539 CNS
[12] = system: U251 CNS
[13] = system: RPMI-8226 leukemia
[14] = system: HS 578T breast
[15] = system: SK-MEL-28 melanoma
[16] = system: M14 melanoma
[17] = system: NCI-H460 lung
[18] = system: UACC-257 melanoma
[19] = system: UO-31 renal
[20] = system: TK-10 renal
[21] = system: UACC-62 melanoma
[22] = system: MDA-MB-231 breast
[23] = system: A498 renal
[24] = system: CCRF-CEM leukemia
[25] = system: NCI-H226 lung
[26] = system: CAKI-1 renal
[27] = system: HCT-15 colon
[28] = system: 786-0 renal
[29] = system: HOP-92 NSCLC
[30] = system: SK-OV-3 ovarian
[31] = system: OVCAR-4 ovarian
[32] = system: HT29 colon
[33] = system: SF-268 CNS
[34] = system: T-47D breast
[35] = system: OVCAR-3 ovarian
[36] = system: COLO 205 colon
[37] = system: K-562 leukemia
[38] = system: HOP-62 NSCLC
[39] = system: MOLT-4 leukemia
[40] = system: SK-MEL-5 melanoma
[41] = system: DU-145 prostate
[42] = system: NCI-H23 lung
[43] = system: NCI/ADR-RES ovarian
[44] = system: NCI-H522 lung
[45] = system: HCT-116 colon
[46] = system: LOX IMVI melanoma
[47] = system: SF-295 CNS
[48] = system: OVCAR-8 ovarian
[49] = system: MALME-3M melanoma
[50] = system: A549 NSCLC
[51] = system: SNB-19 CNS
[52] = system: SN12C renal
[53] = system: HL-60(TB) leukemia
[54] = system: MDA-MB-435
[55] = system: MCF7 breast
[56] = system: IGROV1 ovarian
[57] = system: SW-620 colon
[58] = system: SR leukemia

## CC1=NOC(C)(O)/C1=N/O (configuration not stated)
[1]
  TGI: > 100 µM
[2]
  TGI: > 100 µM
[3]
  TGI: > 100 µM
[4]
  TGI: > 100 µM
[5]
  TGI: > 100 µM
[6]
  TGI: > 100 µM
[7]
  TGI: > 100 µM
[8]
  TGI: > 100 µM
[9]
  TGI: > 100 µM
[10]
  TGI: > 100 µM
[11]
  TGI: > 100 µM
[12]
  TGI: > 100 µM
[13]
  TGI: > 100 µM
[14]
  TGI: > 100 µM
[15]
  TGI: > 100 µM
[16]
  TGI: > 100 µM
[17]
  TGI: > 100 µM
[18]
  TGI: > 100 µM
[19]
  TGI: > 100 µM
[20]
  TGI: > 100 µM
[21]
  TGI: > 100 µM
[22]
  TGI: > 100 µM
[23]
  TGI: > 100 µM
[24]
  TGI: > 100 µM
[25]
  TGI: > 100 µM
[26]
  TGI: > 100 µM
[27]
  TGI: > 100 µM
[28]
  TGI: > 100 µM
[29]
  TGI: > 100 µM
[30]
  TGI: > 100 µM
[31]
  TGI: > 100 µM
[32]
  TGI: > 100 µM
[33]
  TGI: > 100 µM
[34]
  TGI: > 100 µM
[35]
  TGI: > 100 µM
[36]
  TGI: > 100 µM
[37]
  TGI: > 100 µM
[38]
  TGI: > 100 µM
[39]
  TGI: > 100 µM
[40]
  TGI: > 100 µM
[41]
  TGI: > 100 µM
[42]
  TGI: > 100 µM
[43]
  TGI: > 100 µM
[44]
  TGI: > 100 µM
[45]
  TGI: > 100 µM
[46]
  TGI: > 100 µM
[47]
  TGI: > 100 µM
[48]
  TGI: > 100 µM
[49]
  TGI: > 100 µM
[50]
  TGI: > 100 µM
[51]
  TGI: > 100 µM
[52]
  TGI: > 100 µM
[53]
  TGI: > 100 µM
[54]
  TGI: > 100 µM
[55]
  TGI: > 100 µM
[56]
  TGI: > 100 µM
[57]
  TGI: > 100 µM

## C=C1CC[C@@H]2C(C)(C)[C@H](O)CC[C@@]2(C)[C@@H]1COc1ccc2ccc(=O)oc2c1
[1]
  GI50: 19.7 µM
  TGI: 66.3 µM
[2]
  GI50: 29 µM
  TGI: > 100 µM
[3]
  GI50: 20.4 µM
  TGI: 79.5 µM
[4]
  GI50: 21.1 µM
  TGI: 51 µM
[5]
  GI50: 23.9 µM
  TGI: 65.3 µM
[6]
  GI50: 31.6 µM
  TGI: > 100 µM
[7]
  GI50: 20.6 µM
  TGI: 64.1 µM
[8]
  GI50: 38.2 µM
  TGI: > 100 µM
[9]
  TGI: 46.3 µM
[10]
  GI50: 42.3 µM
  TGI: > 100 µM
[11]
  GI50: 29.9 µM
  TGI: > 100 µM
[12]
  GI50: 27.5 µM
  TGI: > 100 µM
[13]
  GI50: 15.6 µM
  TGI: 51.9 µM
[14]
  GI50: 25.1 µM
  TGI: 86.8 µM
[15]
  GI50: 28.7 µM
  TGI: 80.6 µM
[16]
  GI50: 22.5 µM
  TGI: 55.5 µM
[17]
  GI50: 26.5 µM
  TGI: 71.1 µM
[18]
  GI50: 26.9 µM
  TGI: 69.5 µM
[19]
  TGI: 38.4 µM
[20]
  GI50: 35.6 µM
  TGI: > 100 µM
[21]
  TGI: 48.4 µM
[22]
  GI50: 30.4 µM
  TGI: > 100 µM
[24]
  GI50: 28.4 µM
  TGI: > 100 µM
[26]
  GI50: 23.2 µM
  TGI: 74.5 µM
[27]
  GI50: 27 µM
  TGI: > 100 µM
[28]
  GI50: 25 µM
  TGI: 68 µM
[29]
  GI50: 12.5 µM
  TGI: 70.5 µM
[31]
  GI50: 17.2 µM
  TGI: 56.6 µM
[32]
  GI50: 32.3 µM
  TGI: > 100 µM
[33]
  GI50: 28.4 µM
  TGI: 90.6 µM
[34]
  GI50: 14.6 µM
  TGI: 64.1 µM
[35]
  GI50: 22.3 µM
  TGI: 56 µM
[37]
  GI50: 26.9 µM
  TGI: > 100 µM
[38]
  GI50: 28.2 µM
  TGI: > 100 µM
[39]
  GI50: 23.9 µM
  TGI: 62 µM
[40]
  GI50: 17.9 µM
  TGI: 37 µM
[41]
  GI50: 30.1 µM
  TGI: > 100 µM
[42]
  GI50: 24.5 µM
  TGI: 70.1 µM
[43]
  GI50: 22.9 µM
  TGI: 62.7 µM
[44]
  GI50: 21.2 µM
  TGI: 77.4 µM
[45]
  GI50: 26 µM
  TGI: 81.4 µM
[46]
  GI50: 23.3 µM
  TGI: 56.5 µM
[47]
  GI50: 21.3 µM
  TGI: 62.4 µM
[48]
  GI50: 24.2 µM
  TGI: 71 µM
[49]
  GI50: 20.3 µM
  TGI: 64.2 µM
[50]
  GI50: 21.9 µM
  TGI: 60 µM
[51]
  GI50: 33.7 µM
  TGI: > 100 µM
[52]
  GI50: 28.2 µM
  TGI: > 100 µM
[53]
  GI50: 24.1 µM
  TGI: 57.6 µM
[54]
  GI50: 25.3 µM
  TGI: 72.3 µM
[55]
  GI50: 24.3 µM
  TGI: 80.8 µM
[56]
  GI50: 27.7 µM
  TGI: > 100 µM
[58]
  GI50: 40 µM
  TGI: > 100 µM
[57]
  GI50: 34.5 µM
  TGI: > 100 µM
